{"source": "patent US20150044193A1", "about": "“COMPOSITIONS AND METHODS FOR THE TREATMENT OF ALTERED a-SYNUCLEIN FUNCTION” (Neuraltus Pharmaceuticals, Inc., priority 2008, published 2015)", "key": {"α-synuclein mRNA [1]": {"test_system": "α-synuclein mRNA", "test": "RT-PCR of α-synuclein mRNA in SH-SY5Y cells treated with CBE", "format": "cell-based, human", "method": "[…] The cDNAs were prepared by reverse transcription (Superscript III; Invitrogen). PCR was performed using the ABI PRISM 7000 Sequence Detection System and primers. The cycle number at which each PCR reaction reached a significant threshold (CT) during the log phase of the amplification was used as a relative measure of transcript expression. The CT of the α-synuclein gene was calibrated against that of the reference gene […].\nTo test determine if the inhibition of GCase would elicit changes in cellular α-synuclein level, the protein levels were evaluated by using Western blot analysis in non-differentiated SH-SY5Y cells and cells differentiated to the neuronal phenotype, at 48 h following exposure to CBE. […] In order to determine whether increased levels of the protein were due to enhanced transcription, RT-PCR was performed to measure transcript levels in SH-SY5Y treated with CBE. […] These findings indicate that increased α-synuclein levels observed following CBE exposure are not due to enhanced expression (FIG. 3b)."}, "α-synuclein [2]": {"test_system": "α-synuclein", "test": "Western blot of α-synuclein in non-differentiated SH-SY5Y cells exposed to CBE", "format": "cell-based, human", "details": "non-differentiated neuroblastoma cells, 48 h exposure", "method": "(§1) The treatment paradigm is depicted in FIG. 1. SH-SY5Y cells were grown in Dulbecco's modified Eagle medium with 10% fetal calf serum, 2 mM glutamine, and were subcultured 1:5 with TrypLE (GIBCO/Invitrogen; Carlsbad, Calif.) using standard tissue culture techniques. The cells were differentiated in neurobasal media supplemented with B-27 and 40 μM retinoic acid for 7 days (Pahlman et al., 1984). Cells were exposed to CBE at doses of 0, 12.5, 25, 50, 100 or 200 μM in dimethyl sulfoxide (DMSO; Sigma Chemicals; St. Louis, Mo.) for 48 h at 37° C. At this time, cultures were washed with HBSS and trypsinized for 10 min followed by centrifugation at 1,000×g for 10 min to pellet cells. Media was removed, and cells were lysed in 10 mM Tris/1 mM EDTA/protease inhibitor cocktail (1:1000; Sigma) by sonication. Samples were centrifuged at 1,000×g for 10 min; the supernatant fraction was decanted from particulate fraction. Following determination of protein concentration using the BCA protein assay (Pierce Chemicals, Rockford, Ill.), samples were frozen until used for Western blot analysis experiments.\nTo test determine if the inhibition of GCase would elicit changes in cellular α-synuclein level, the protein levels were evaluated by using Western blot analysis in non-differentiated SH-SY5Y cells and cells differentiated to the neuronal phenotype, at 48 h following exposure to CBE. […]"}, "nigral neurons": {"test_system": "nigral neurons", "test": "Silver grain accumulation (degenerating neurons) in substantia nigra of CBE-treated mice", "format": "in vivo", "details": "CBE- vs. DMSO-treated mice"}, "α-synuclein mRNA [3]": {"test_system": "α-synuclein mRNA", "details": "astroglial cultures challenged with CBE; cited from earlier work"}, "α-synuclein [4]": {"test_system": "α-synuclein", "test": "Western blot of α-synuclein in ventral mesencephalon fractions of CBE-treated mice", "format": "in vivo, C57BL/6 mice", "details": "single i.p. 200 mg/kg, 48 h", "method": "(§2) The administration paradigm is depicted in FIG. 2. Mice (C57BL/6) were maintained on a 12 h light-dark cycle and given food and drinking water ad libitum. All animal procedures and care methods were approved by the Institutional Animal Care and Usage Committee. In experiments to test the effects of CBE on α-synuclein protein, C57BL/6 male mice, aged 8 weeks, were used as previously described with some modifications (Kanfer et al., 1975, Adachi and Volk, 1977, Kanfer et al., 1982). Mice (n=8/group) received a single i. p. injection of 200 mg/kg CBE (Sigma) in DMSO or the vehicle alone and killed 2 days after injection. For Western blot analyses, brains were removed, dissected on ice and frozen on dry ice until needed (Manning-Bog et al., 2002, Purisai et al., 2005). For experiments utilizing immunohistochemistry, brains were immersion fixed in 4% paraformaldehyde and successively cryoprotected in 10 and 30% sucrose over the course of 72 h (Manning-Bog et al., 2002, Manning-Bog et al., 2003). Brains were sectioned at 40-μm intervals and stored in cryopreservative solution at −20° C. until needed.\nFractions from ventral mesencephalon separated by the centrifugation were utilized for immunoblotting experiments. Following homogenization in 10 mM Tris/1 mM EDTA/protease inhibitor cocktail (1:1000; Sigma, St. Louis, Mo.) by sonication, samples were centrifuged at 1,000×g for […]. The supernatant fraction (S1) was decanted and stored, and the pellet fraction containing nuclei and large membrane fragments were reconstituted in homogenization buffer (P1 fraction). The protein concentration was measured. […]\nC57BL/6 mice were exposed to a single injection of CBE and assessed for changes in α-synuclein at 48 h to determine whether diminished GCase activity is associated with alterations in the protein in vivo, specifically within the substantia nigra. […] In tissue homogenates from ventral mesencephalon of CBE vs. DMSO (vehicle)-treated mice, α-synuclein immunoreactivity was assessed by Western blot analysis."}, "α-synuclein [5]": {"test_system": "α-synuclein", "test": "α-synuclein immunohistochemistry in brain of CBE-treated mice", "format": "in vivo, C57BL/6 mice", "details": "single 200 mg/kg, 48 h", "method": "as §2, with “needed. […]” for “needed.”\nThe effects of CBE exposure on α-synuclein within the ventral mesencephalon were also assessed histologically with immunohistochemistry. […]"}, "GFAP": {"test_system": "GFAP", "test": "GFAP immunohistochemistry (astroglial activation) in brain of CBE-treated mice", "format": "in vivo, C57BL/6 mice", "details": "single 200 mg/kg, 48 h", "method": "as §2, with “Brains were sectioned at 40-μm intervals and stored in cryopreservative solution at −20° C. until needed.” left out\nSubstantia nigra-containing tissue sections were immunostained using an antibody for the astrocytic marker, glial fibrillary acidic protein (GFAP). […] Alternatively, it may be that upregulation is responsible for increased α-synuclein levels in astrocytes. α-synuclein has been detected in cultured human astrocytes, and its expression level is responsive to cytokine exposure (Tanji et al., 2001)."}, "α-synuclein [6]": {"test_system": "α-synuclein", "test": "Western blot of α-synuclein in differentiated SH-SY5Y cells exposed to CBE", "format": "cell-based, human", "method": "as §1\nFractions from ventral mesencephalon separated by the centrifugation were utilized for immunoblotting experiments. Following homogenization in 10 mM Tris/1 mM EDTA/protease inhibitor cocktail (1:1000; Sigma, St. Louis, Mo.) by sonication, samples were centrifuged at 1,000×g for […]. The supernatant fraction (S1) was decanted and stored, and the pellet fraction containing nuclei and large membrane fragments were reconstituted in homogenization buffer (P1 fraction). The protein concentration was measured. After proteins were separated by SDS-PAGE and transferred to nitrocellulose, the blots were blocked and incubated overnight at 4° C. with anti-α-synuclein (Signet; Novus Biologicals, Littleton, Colo.; Abcam, Cambridge, Mass.; Santa Cruz Biotechnology, Santa Cruz, Calif.) or anti-GAPDH (Sigma). Appropriate secondary antibodies conjugated to HRP were applied, and blots were incubated with a chemiluminescent substrate (Pierce) and exposed to Kodak X-Omat Blue Film (Kodak, Rochester, N.Y.). Mouse or rabbit IgG was used in lieu of the primary antibody to ensure specificity in control experiments.\nTo test determine if the inhibition of GCase would elicit changes in cellular α-synuclein level, the protein levels were evaluated by using Western blot analysis in non-differentiated SH-SY5Y cells and cells differentiated to the neuronal phenotype, at 48 h following exposure to CBE. […] In order to determine whether increased levels of the protein were due to enhanced transcription, RT-PCR was performed to measure transcript levels in SH-SY5Y treated with CBE. […]"}, "α-synuclein [7]": {"test_system": "α-synuclein", "test": "α-synuclein in substantia nigra of aged mice treated sub-chronically with CBE", "format": "in vivo", "details": "sub-chronic CBE vs. DMSO", "excerpt": "It is likely that sustained glucocerebrosidase inhibition promotes increased levels of the α-synuclein expression protein."}, "SH-SY5Y cells": {"test_system": "SH-SY5Y cells", "test": "Overt toxicity in SH-SY5Y cells treated with GCase inhibitor", "format": "cell-based, human", "details": "SH-SY5Y cells treated with CBE"}}, "note": "“Also recorded” adds a separate entry of the source.", "data": [{"smiles": "O[C@H]1[C@H](O)[C@@H](O)[C@@H]2O[C@@H]2[C@@H]1O", "note": "(racemic) [CBE, Conduritol B epoxide]", "values": [{"measurement": "α-synuclein gene expression (RT-PCR)", "setting": "α-synuclein mRNA [1]; SH-SY5Y, any dose tested, 24 h following CBE treatment", "value": "No change in α-synuclein gene expression was detected"}, {"measurement": "α-synuclein transcription (mRNA, RT-PCR)", "setting": "α-synuclein mRNA [1]; differentiated SH-SY5Y, increasing concentrations of CBE, (FIG. 3B legend)", "value": "No change in α-synuclein transcription was detected"}, {"measurement": "α-synuclein protein levels (Western blot)", "setting": "α-synuclein [2]", "value": "No change in α-synuclein was detected"}, {"measurement": "silver grains in nigral neurons (degenerating neurons)", "setting": "nigral neurons", "value": "Accumulation of silver grains in nigral neurons"}, {"measurement": "expression of α-synuclein mRNA", "setting": "α-synuclein mRNA [3]", "value": "enhanced expression of α-synuclein mRNA"}, {"measurement": "higher molecular forms of α-synuclein (SDS-stable aggregates)", "setting": "α-synuclein [4]", "value": "No immunoreactivity for higher molecular forms of α-synuclein"}, {"measurement": "α-synuclein levels in P1 (particulate) fraction, monomeric 19 kDa band", "setting": "α-synuclein [4]; CBE vs. DMSO, 200 mg/kg", "value": "Denser α-synuclein-positive bands; also recorded: levels of α-synuclein were increased in the particulate fraction; also recorded: an increase in α-synuclein levels"}, {"measurement": "α-synuclein levels in S1 (supernatant) fraction", "setting": "α-synuclein [4]; CBE vs. DMSO, 200 mg/kg", "value": "no alteration; also recorded: no change"}, {"measurement": "α-synuclein in other brain regions (cortex, hippocampus)", "setting": "α-synuclein [5]", "value": "No obvious changes in α-synuclein; also recorded: No alteration in protein levels"}, {"measurement": "α-synuclein immunoreactivity in substantia nigra neurons", "setting": "α-synuclein [5]; CBE vs. vehicle", "value": "robust immunoreactivity was observed within the cell bodies; also recorded: enhanced immunoreactivity for α-synuclein was detected within the cytoplasm and cell nuclei; also recorded: accumulation of the protein within neuronal cell bodies; also recorded: apparent increase; also recorded: accumulation of α-synuclein (FITC) within cell bodies and processes"}, {"measurement": "α-synuclein within astrocytes of substantia nigra (dual-label immunofluorescence)", "setting": "GFAP", "value": "enhanced α-synuclein was also detected within activated astrocytes; also recorded: colocalization of α-synuclein immunoreactivity was observed within astrocytes"}, {"measurement": "GFAP immunoreactivity / astroglial activation in substantia nigra", "setting": "GFAP; CBE vs. vehicle", "value": "astroglial activation, as observed by GFAP immunoreactivity, was apparent; also recorded: apparent increase; also recorded: Glial activation was robust"}, {"measurement": "immunoreactivity for α-synuclein in tissue culture", "setting": "α-synuclein [6]; CBE-exposed neuroblastoma cells differentiated to neuronal phenotype", "value": "increased immunoreactivity for α-synuclein"}, {"measurement": "CBE concentrations at which increased α-synuclein levels were seen", "setting": "α-synuclein [6]; differentiated SH-SY5Y cells, 48 h, Western blot", "value": "50 to 200", "unit": "µM"}, {"measurement": "dose at which increased α-synuclein protein levels peak", "setting": "α-synuclein [6]; differentiated SH-SY5Y cells, 48 h, doses 0-200 μM tested", "value": 50, "unit": "µM"}, {"measurement": "α-synuclein protein levels (Western blot)", "setting": "α-synuclein [6]; differentiated SH-SY5Y cells, 48 h exposure, CBE vs. vehicle", "value": "increased levels of α-synuclein protein were observed"}, {"measurement": "α-synuclein expression within substantia nigra", "setting": "α-synuclein [7]", "value": "Increased α-synuclein expression"}, {"measurement": "overt toxicity within cells", "setting": "SH-SY5Y cells", "value": "no overt toxicity"}]}]}
